Tests used:
[1] = tested on: primary human mesenchymal stem cells (hMSCs); assay: Chondrogenesis induction in primary human mesenchymal stem cells (nodule imaging, Rhodamine B/Nile Red); type: cell-based; conditions: 6 days, dose at which the compound reached maximum chondrogenesis activity, dose range 10-2700 nM
Description: The above synthesized compounds were screened using primary human mesenchymal stem cells (hMSCs) to determine their ability to induce chondrogenesis (process by which cartilage is developed).
Human Mesenchymal Stem Cell Culture: Primary human mesenchymal stem cells (hMSCs) were purchased from Lonza (Walkersville, Md.) and expanded in Mesenchymal Stem Cell Growth Media (Lonza). Cells between passage 3 and 6 were used for the experiments.
Compound Screening: Each compound was dissolved in DMSO as a 10 mM stock and used to prepare compound source plates. Serial dilution (1:3, 6-point dose-response curves from 2700 nM to 10 nM) and compound transfer was performed using the ECHO 550 (Labcyte, Sunnyvale, Calif.) into 96-well clear bottom assay plates (Greiner Bio-One) with appropriate DMSO backfill for a final DMSO concentration of 0.03%. hMSCs were plated at 20,000 cells/well in 250 μL/well Incomplete Chondrogenic Induction Medium (Lonza; DMEM, dexamethasone, ascorbate, insulin-transferrin-selenium [ITS supplement], gentamycin-amphotericin [GA-1000], sodium pyruvate, proline and L-glutamine). TGF-β3 (10 ng/mL) was used as a positive control for differentiation while negative control wells were treated with 75 nL DMSO for normalization and calculating EC50 values. Cells were incubated at 37° C. and 5% CO2 for 6 days. To image chondrogenic nodules, the cells were fixed using 4% formaldehyde (Electron Microscopy Sciences), and stained with 2 μg/mL Rhodamine B (Sigma-Aldrich) and 20 μM Nile Red (Sigma-Aldrich) [Johnson K., et. al, A Stem Cell-Based Approach to Cartilage Repair, Science, (2012), 336(6082), 717-721]. The nodules imaged (4 images per well at 4× magnification) by excitation at 531 nm and emission at 625 nm and quantified using the CellInsight CX5 (Thermo Scientific). Number of nodules in each well was normalized to the average of 3 DMSO treated wells on the same plate using Excel (Microsoft Inc.). The normalized averages (fold change over DMSO) of 3 replicate wells for each compound concentration were calculated. Due to solubility limitations of some of the compounds, curve fitting was incomplete leading to inaccurate EC50 determinations.
Using TGF-β3 as a positive control, the concentration of test compounds required to induce equivalent levels of chondrogenesis is reported. In addition, the maximum activity of each compound and the respective dose that each compound reached maximum chondrogenesis activity is reported.

[2] = tested on: primary human fibroblasts derived from IPF patients (LL29 cells); assay: Inhibition of fibrosis (αSMA staining) in TGF-β1-treated primary human fibroblasts from IPF patients; type: cell-based; conditions: Fibroblast, 96 h, TGF-β1 20 ng/mL, 4 days
Procedure, shortened: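 LL29 IPF fibroblasts in F12 with 1% FBS were stimulated with TGF-β1 (20 ng/mL) and incubated 4 days at 37 °C. SYTOX-positive dead cells were excluded, and αSMA-positive cells were counted by immunostaining as % of total. Values were normalized to TGF-β1/DMSO wells on the same plate, and EC50 derived.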

[3] = tested on: Wnt activity (Sp5-Luc reporter, SW480 colon carcinoma cells); assay: Sp5-Luc Wnt reporter gene screening assay in SW480 colon carcinoma cells; conditions: Homo sapiens
Description: The screening assay for Wnt activity is described as follows.
SW480 colon carcinoma cells were transduced with a lentiviral vector expressing luciferase with a human Sp5 promoter consisting of a sequence of eight TCF/LEF binding sites. SW480 cells stably expressing the Sp5-Luc reporter gene and a hygromycin resistance gene were selected by treatment with 150 μg/ml of hygromycin for 7 days. These stably transduced SW480 cells were expanded in cell culture and used for all further screening activities. For Sp5-Luc reporter gene assays, the cells were plated at 10,000 cells/well in 96-well plates with growth medium containing 10% fetal calf serum and incubated overnight at 37° C. and 5% CO2. […] Compound transfer from serially diluted source plates to assay plates containing the cells was accomplished using a pintool (Multimek 96, Beckman equipped with V&P Scientific FP1S50H pins) based liquid handling protocol. This protocol used a slotted pin to transfer 50 nl of compound from a source plate well to an assay plate well containing 50 μl of cells in growth medium. […] Control wells received 50 nl of DMSO treatment for normalization and calculating IC50 values. The treated cells were incubated at 37° C. and 5% CO2 for an additional forty-two hours. Following incubation, the growth medium was removed and 50 μl of BrightGlo luminescence reagent (Promega) was added to each well of the 96-well assay plates. The plates were placed on an orbital shaker for 5 min and then luminescence was quantified on the Victor3 (Perkin Elmer) plate reader.

SMILES	Conc (nM) of Max. activity [1]	EC50 [2]	IC50 [3]
O=C(Nc1cncc(-c2cc3c(-c4nc5c(-c6cccs6)cccc5[nH]4)n[nH]c3cn2)c1)C1CC1 [Compound 331, N-(5-(3-(4-(Thiophen-2-yl)-1H-benzo[d]imidazol-2-yl)-1H-pyrazolo[3,4-c]pyridin-5-yl)pyridin-3-yl)cyclopropanecarboxamide]	300 nM	29 nM	17.2 nM
Cc1ccc(-c2cccc3[nH]c(-c4n[nH]c5cnc(-c6cncc(N)c6)cc45)nc23)s1 [Compound 367, 5-(3-(4-(5-Methylthiophen-2-yl)-1H-benzo[d]imidazol-2-yl)-1H-pyrazolo[3,4-c]pyridin-5-yl)pyridin-3-amine]	30 nM	9 nM	3.5 nM
CC(=O)c1ccc(-c2cccc3[nH]c(-c4n[nH]c5cnc(-c6cncc(NC(=O)CC(C)C)c6)cc45)nc23)s1 [Compound 392, N-(5-(3-(4-(5-Acetylthiophen-2-yl)-1H-benzo[d]imidazol-2-yl)-1H-pyrazolo[3,4-c]pyridin-5-yl)pyridin-3-yl)-3-methylbutanamide]	2700 nM	267 nM	32.1 nM
Cc1ccncc1-c1cc2c(-c3nc4c(-c5cc(F)cc(CNS(C)(=O)=O)c5)cccc4[nH]3)n[nH]c2cn1 [Compound 421, N-(3-Fluoro-5-(2-(5-(4-methylpyridin-3-yl)-1H-pyrazolo[3,4-c]pyridin-3-yl)-1H-benzo[d]imidazol-4-yl)benzyl)methanesulfonamide]	100 nM	9 nM	10 nM
CC(C)Nc1cncc(-c2cc3c(-c4nc5c(-c6cc(F)cc(NCCN(C)C)c6)cccc5[nH]4)n[nH]c3cn2)c1 [Compound 454, N^1-(3-Fluoro-5-(2-(5-(5-(isopropylamino)pyridin-3-yl)-1H-pyrazolo[3,4-c]pyridin-3-yl)-1H-benzo[d]imidazol-4-yl)phenyl)-N^2,N^2-dimethylethane-1,2-diamine]	300 nM	117 nM	51.6 nM
Fc1cccc(-c2cccc3[nH]c(-c4n[nH]c5cnc(-c6cn[nH]c6)cc45)nc23)c1 [Compound 939, 3-(4-(3-Fluorophenyl)-1H-benzo[d]imidazol-2-yl)-5-(1H-pyrazol-4-yl)-1H-pyrazolo[3,4-c]pyridine]	30 nM	9 nM	25 nM

— US10202377B2, “3-(1H-benzo[D]imidazol-2-yl)-1H-pyrazolo[3,4-C]pyridine and therapeutic uses thereof” (Samumed, LLC, priority 2014, dated 2019)
